Source: PMC5981617, “Targeted Delivery of Cell Penetrating Peptide Virus-like Nanoparticles to Skin Cancer Cells” (Scientific Reports, 2018)
Counter-ions that a name gives are not always drawn. No end group written: not given here. *: point of attachment. FITC = O=C1OC2(c3ccc(O)cc3Oc3cc(O)ccc32)c2ccc(NC(=S)*)cc21

What was measured:
Format in all cases: cell-based, human
A431 cells [1] = assay: Endocytosis inhibitory assay (entry of FITC-peptide, fluorescence microscopy); settings: 30 min pre-treatment, then FITC-NRPDSAQFWLHH 0.25 mM, 16 h, 37 °C; CPZ 6 µg/mL, MβCD 1.5 mM, Cyt D 10 µg/mL, genistein 200 µM
Method: Four endocytosis inhibitors [Cyt D (10 µg/mL; Calbiochem, San Diego, California, USA), CPZ (6 µg/mL; Santa Cruz Biotechnology, Dallas, Texas, USA), MβCD (1.5 mM; Sigma Aldrich, St. Louis, Missouri, USA) and genistein (200 µM; Calbiochem, San Diego, California, USA)] were used to study the energy-dependent endocytosis of peptide […] into A431 cells. The cells (200,000 cells/well) were seeded onto sterile glass coverslips which had been placed in a six-well plate, and incubated at 37 °C for overnight. The medium was then removed and the cells were pretreated with the inhibitors at 37 °C for 30 min. After the pretreatment with inhibitors, FITC-[…] (0.25 mM) was added to the cells and incubated for 16 h at 37 °C in the presence of inhibitors. After removing the medium, the cells were washed, fixed and stained with Hoechst 33342. The cells were mounted onto a glass slide and examined under a fluorescence microscope.

A431 cells [2] = assay: MTT assay, cell viability in the presence of endocytosis inhibitors; settings: Cyt D 10 µg/mL, genistein 200 µM, CPZ 6 µg/mL, MβCD 1.5 mM, n = 3
A431 cells [3] = assay: Internalisation of FITC-labelled peptide, fluorescence microscopy; settings: 0.25 mM, 37 °C, 16 h
Method: (§1) The selective internalisation property of peptide […] was tested on NHDF and A431 cells. These cells (200,000 cells/well) were seeded separately onto sterile glass coverslips which had been placed in a six-well plate, and incubated overnight at 37 °C. After changing the medium, the cells were added with FITC-conjugated peptide (FITC-[…]; 0.25 mM; Mimotopes Pty Ltd, Clayton, Victoria, Australia), and incubated for 16 h at 37 °C. The cells were then washed 3 times with PBS and fixed with paraformaldehyde [3.7% (w/v)]. Hoechst 33342 was added and incubated for 10 min to stain the cell nuclei. The cells were mounted onto a glass slide and observed under a fluorescence microscope.
(§2) A431 and HT29 cell lines (200,000 cells/well) were seeded onto sterile glass coverslips in a six-well plate and incubated overnight at 37 °C. After changing the medium, peptide FITC-[…] (0.25 mM) was added to the cell lines and incubated at 37 °C for 16 h in a CO2 incubator. The cells were then washed, fixed, stained with Hoechst 33342, and viewed under a fluorescence microscope. The amount of phage internalised into A431 and HT29 cells (1 × 10^6 cells) which had been incubated with the purified phage (1 × 10^12 pfu) at 37 °C for 12 h was measured with the phage titration assay as described above.

NHDF cells = assay: as above; settings: 0.25 mM, 37 °C, 16 h
Method: as §1

HT29 cells = assay: Internalisation of FITC-labelled peptide in cell line with lower EGFr expression; settings: 0.25 mM, 37 °C, 16 h; HT29 9 × 10^3 EGFr/cell; fluorescence microscopy
Method: as §2

| Molecule | Effect of endocytosis inhibitor on internalisation of peptide NRPDSAQFWLHH (green granular appearance) (A431 cells [1]) | Viability of A431 cells in the presence of inhibitor (A431 cells [2]) | Internalisation of FITC-labelled peptide into A431 cells (A431 cells [3]) | Internalisation of FITC-labelled peptide into NHDF cells (NHDF cells) | Internalisation of FITC-labelled peptide into HT29 cells (HT29 cells) |
| --- | --- | --- | --- | --- | --- |
| C=C1[C@@H](C)[C@H]2[C@H](Cc3ccccc3)NC(=O)[C@]23[C@H](OC(C)=O)/C=C/[C@@](C)(O)C(=O)[C@@H](C)C/C=C/[C@H]3[C@@H]1O [Cyt D, cytochalasin D] | did not inhibit internalisation | over 83% | – | – | – |
| {FITC}-NRPDSAQFWLHH | – | – | taken up efficiently | no significant fluorescent signal was observed | no significant green fluorescent granules were observed |
| methyl-β-cyclodextrin [MβCD] | reduced drastically | over 83% | – | – | – |
| O=c1c(-c2ccc(O)cc2)coc2cc(O)cc(O)c12 [genistein] | did not inhibit internalisation | over 83% | – | – | – |
| CN(C)CCCN1c2ccccc2Sc2ccc(Cl)cc21 [CPZ, chlorpromazine hydrochloride] | reduced drastically | over 83% | – | – | – |
